Measurements as given in ChEMBL document CHEMBL5505970 (J Med Chem, 2024).
pIC50, pKi: −log10 of the molar value. Values belong to the molecule of their own block, whether it stands above or below them. Active and inactive are the calls of the source. The rule behind the calls is not given here.

Columns and labels:
[1] = Inhibition of human full length recombinant ATR M211T mutant using GST-c-Myc-p53 as substrate measured after 30 mins in presence of Mg/ATP mix by ELISA
ATR/ATRIP = ATR/ATRIP (Homo sapiens, UniProt Q13535); assay: Inhibition of human ATR/ATRIP using GST-tagged p53 as substrate in presence of 3 uM ATP by AlphaScreen assay; type: protein-complex assay
ATR/ATRIP, sequence (Q13535 whole entry): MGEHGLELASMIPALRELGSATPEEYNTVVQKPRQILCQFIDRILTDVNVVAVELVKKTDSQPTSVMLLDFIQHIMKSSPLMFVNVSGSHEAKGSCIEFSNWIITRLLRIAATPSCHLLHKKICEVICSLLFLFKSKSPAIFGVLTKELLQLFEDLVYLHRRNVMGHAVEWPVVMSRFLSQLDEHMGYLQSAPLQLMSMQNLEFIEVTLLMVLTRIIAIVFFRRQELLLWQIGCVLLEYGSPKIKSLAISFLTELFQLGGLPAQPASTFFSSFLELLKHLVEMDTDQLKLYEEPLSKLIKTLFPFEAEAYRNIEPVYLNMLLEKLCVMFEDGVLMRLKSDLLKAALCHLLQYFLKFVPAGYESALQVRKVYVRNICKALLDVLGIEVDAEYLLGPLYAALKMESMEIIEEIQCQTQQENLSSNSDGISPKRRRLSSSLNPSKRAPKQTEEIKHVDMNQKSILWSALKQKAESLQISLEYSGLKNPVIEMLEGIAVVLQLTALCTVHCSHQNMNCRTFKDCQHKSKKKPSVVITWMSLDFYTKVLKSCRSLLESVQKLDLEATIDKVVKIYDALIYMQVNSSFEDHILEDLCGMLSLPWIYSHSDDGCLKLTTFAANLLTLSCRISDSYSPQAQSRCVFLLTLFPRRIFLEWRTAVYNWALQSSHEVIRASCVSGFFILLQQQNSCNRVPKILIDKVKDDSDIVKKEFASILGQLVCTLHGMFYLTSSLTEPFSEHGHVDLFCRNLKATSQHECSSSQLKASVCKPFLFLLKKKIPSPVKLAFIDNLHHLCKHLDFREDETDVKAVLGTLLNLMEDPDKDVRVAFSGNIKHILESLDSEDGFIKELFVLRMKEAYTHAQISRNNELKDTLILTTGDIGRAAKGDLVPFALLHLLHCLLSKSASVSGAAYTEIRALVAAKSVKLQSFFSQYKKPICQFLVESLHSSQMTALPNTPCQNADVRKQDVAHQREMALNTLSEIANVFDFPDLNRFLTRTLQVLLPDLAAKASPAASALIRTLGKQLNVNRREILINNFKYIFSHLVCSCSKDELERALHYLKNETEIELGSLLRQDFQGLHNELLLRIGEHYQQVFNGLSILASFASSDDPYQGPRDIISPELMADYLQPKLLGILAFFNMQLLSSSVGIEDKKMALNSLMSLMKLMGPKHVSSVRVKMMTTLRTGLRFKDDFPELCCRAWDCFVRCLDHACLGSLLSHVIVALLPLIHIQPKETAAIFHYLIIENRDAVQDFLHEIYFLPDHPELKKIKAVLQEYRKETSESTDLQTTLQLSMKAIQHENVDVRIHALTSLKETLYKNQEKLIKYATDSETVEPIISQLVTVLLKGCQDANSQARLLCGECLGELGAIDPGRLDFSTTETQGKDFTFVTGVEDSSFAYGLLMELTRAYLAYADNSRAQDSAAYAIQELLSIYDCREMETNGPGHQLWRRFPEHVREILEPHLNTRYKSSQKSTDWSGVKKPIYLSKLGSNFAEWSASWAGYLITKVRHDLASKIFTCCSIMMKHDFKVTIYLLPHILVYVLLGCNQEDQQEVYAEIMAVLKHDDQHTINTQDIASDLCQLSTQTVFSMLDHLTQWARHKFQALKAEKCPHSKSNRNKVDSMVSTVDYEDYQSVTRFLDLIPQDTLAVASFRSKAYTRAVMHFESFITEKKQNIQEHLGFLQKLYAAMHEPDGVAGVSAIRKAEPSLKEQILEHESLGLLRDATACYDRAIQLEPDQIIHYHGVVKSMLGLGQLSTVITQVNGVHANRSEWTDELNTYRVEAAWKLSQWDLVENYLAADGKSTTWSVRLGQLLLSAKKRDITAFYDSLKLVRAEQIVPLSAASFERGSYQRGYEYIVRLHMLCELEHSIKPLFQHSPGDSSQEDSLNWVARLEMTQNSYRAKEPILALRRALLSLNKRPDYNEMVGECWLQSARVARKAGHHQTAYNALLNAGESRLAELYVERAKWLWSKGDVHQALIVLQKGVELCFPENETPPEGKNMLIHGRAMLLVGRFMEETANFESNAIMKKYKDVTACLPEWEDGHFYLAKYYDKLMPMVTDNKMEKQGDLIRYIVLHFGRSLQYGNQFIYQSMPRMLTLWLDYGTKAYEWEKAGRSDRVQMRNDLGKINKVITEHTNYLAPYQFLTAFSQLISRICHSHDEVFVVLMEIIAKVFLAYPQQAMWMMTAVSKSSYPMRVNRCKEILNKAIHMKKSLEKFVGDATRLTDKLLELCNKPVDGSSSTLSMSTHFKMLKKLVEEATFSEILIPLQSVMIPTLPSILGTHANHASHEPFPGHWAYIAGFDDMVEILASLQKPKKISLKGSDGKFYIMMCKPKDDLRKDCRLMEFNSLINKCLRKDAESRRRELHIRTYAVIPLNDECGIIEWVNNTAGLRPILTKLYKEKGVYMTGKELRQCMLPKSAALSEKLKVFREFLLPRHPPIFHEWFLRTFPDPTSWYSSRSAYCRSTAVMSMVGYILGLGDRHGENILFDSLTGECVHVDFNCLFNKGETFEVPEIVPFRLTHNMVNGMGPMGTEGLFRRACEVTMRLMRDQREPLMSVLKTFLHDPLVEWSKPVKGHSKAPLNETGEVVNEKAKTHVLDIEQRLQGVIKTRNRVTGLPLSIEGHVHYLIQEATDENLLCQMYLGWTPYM
ATR/ATRIP, sequence (Q8WXE1 whole entry, further chain): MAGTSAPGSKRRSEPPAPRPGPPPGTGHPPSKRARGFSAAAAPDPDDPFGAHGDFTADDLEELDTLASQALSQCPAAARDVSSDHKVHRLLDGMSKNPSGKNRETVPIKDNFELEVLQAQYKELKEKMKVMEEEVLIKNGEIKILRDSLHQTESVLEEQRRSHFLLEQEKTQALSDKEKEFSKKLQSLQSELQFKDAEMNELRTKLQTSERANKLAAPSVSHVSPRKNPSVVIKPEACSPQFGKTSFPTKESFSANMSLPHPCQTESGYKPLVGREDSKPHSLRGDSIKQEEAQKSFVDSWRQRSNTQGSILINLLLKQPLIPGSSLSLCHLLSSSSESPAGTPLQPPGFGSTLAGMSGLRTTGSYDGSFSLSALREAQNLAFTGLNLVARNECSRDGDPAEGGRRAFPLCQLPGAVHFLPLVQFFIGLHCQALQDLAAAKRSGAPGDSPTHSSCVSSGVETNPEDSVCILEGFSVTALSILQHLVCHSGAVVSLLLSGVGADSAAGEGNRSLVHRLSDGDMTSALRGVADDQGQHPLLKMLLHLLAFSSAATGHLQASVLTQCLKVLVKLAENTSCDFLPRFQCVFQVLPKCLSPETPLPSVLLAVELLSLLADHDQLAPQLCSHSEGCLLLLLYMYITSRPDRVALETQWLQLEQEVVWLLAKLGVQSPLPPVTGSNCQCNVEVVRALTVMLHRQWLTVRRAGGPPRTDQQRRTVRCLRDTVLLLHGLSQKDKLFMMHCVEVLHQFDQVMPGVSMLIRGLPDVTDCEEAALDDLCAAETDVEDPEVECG

[2] = molecular target: T1, Serine/threonine-protein kinase ATR (Homo sapiens, UniProt Q13535); assay: Inhibition of ATR in human HeLa S3 cells assessed as decrease in CHK1 phosphorylation at Ser345 residue pretreated for 20 mins followed by gemcitabine stimulation for 3.5 to 4 hrs by AlphaScreen SurFire assay; type: cell-based
T1 sequence (Q13535 whole entry): as the sequence (Q13535 whole entry) above

[3] = Clearance in human liver microsomes at 1 uM in presence of NADPH by ESI/LC-MS/MS analysis; type: ADME, Microsome; details: read-out: CLH
[4] = Oral bioavailability in Sprague-Dawley rat at 2.5 to 5 mg/kg formulated as a solution in 5% NMP:95% (10% VitE TPGS in water) measured for 24 hrs by reverse phase liquid chromatography coupled to mass spectrometry; type: ADME, organism-based; details: in vivo, dose 2.5-5 mg/kg
[5] = Clearance in Sprague-Dawley rat at 1 mg/kg, iv formulated as a solution in 10% PG:18% PEG400 in water or 5% NMP:95% (10% VitE TPGS in water) measured for 24 hrs by reverse phase liquid chromatography coupled to mass spectrometry; type: ADME, organism-based; details: in vivo
Homo sapiens [6] = species on record: Homo sapiens; assay: Selectivity ratio of IC50 for inhibition of mTOR in human HeLa S3 cells to IC50 for inhibition of ATR in human HeLa S3 cells; type: cell-based; details: time 1.0 hrs
[7] = Apparent permeability of the compound in human Caco-2 cells at 10 uM measured for 90 mins by LC-MS/MS analysis; type: ADME, cell-based
[8] = Efflux ratio of apparent permeability in human Caco-2 cells at 10 uM measured for 90 mins by LC-MS/MS analysis; type: ADME, cell-based
[9] = Clearance in human hepatocytes at 1 uM measured per million cells by ESI/LC-MS/MS analysis; type: ADME, cell-based, Hepatocyte; details: read-out: CLH
[10] = molecular target: Serine-protein kinase ATM (Homo sapiens, UniProt Q13315); assay: Inhibition of human full length recombinant ATM using GST-c-Myc-p53 as substrate measured after 30 mins in presence of Mg/ATP mix by ELISA
[11] = molecular target: DNA-dependent protein kinase catalytic subunit (Homo sapiens, UniProt P78527); assay: Inhibition of human full length recombinant DNA-PK using GST-c-Myc-p53 as substrate measured after 30 mins in presence of Mg/ATP mix by ELISA
[12] = molecular target: Serine/threonine-protein kinase mTOR (Homo sapiens, UniProt P42345); assay: Inhibition of human full length recombinant mTOR measured after 40 mins in presence of [gamma-33P]ATP by radiometric scintillation counting analysis
LoVo = assay: Cytotoxicity against human LoVo cells assessed as reduction in cell viability incubated for 5 days by CellTiter-Glo assay; type: functional, cell-based; details: 120 h
Granta-519 = assay: Antitumor activity against human Granta-519 cells xenografted in NOD-SCID mouse assessed as decrease in tumor volume at 50 mg/kg, po bid for 3 days and measured at 4 days after drug treatment cessation; type: functional, organism-based; details: time 3.0 day
[13] = Toxicity in NOD-SCID mouse xenografted with human Granta-519 cells assessed as reduction in red blood cells at 50 mg/kg, po bid for 3 days and 4 days off treatment and measured on day 14; type: organism-based; details: in vivo, 72 h, time 3 day
[14] = Toxicity in NOD-SCID mouse xenografted with human Granta-519 cells assessed as early stage erythroblasts at 30 mg/kg, po bid for 3 days and measured at 4 days after treatment discontinuation by flow cytometry; type: organism-based; details: in vivo, 72 h, time 3 day
[15] = Toxicity in NOD-SCID mouse xenografted with human Granta-519 cells assessed as late stage erythroblasts at 30 mg/kg, po bid for 3 days and measured at 4 days after treatment discontinuation by flow cytometry; type: organism-based; details: in vivo, 72 h, time 3 day
[16] = molecular target: T1, Serine/threonine-protein kinase ATR; assay: Inhibition of ATR (unknown origin) by Morrison equation based analysis
[17] = molecular target: Dual specificity tyrosine-phosphorylation-regulated kinase 1A (Homo sapiens) (UniProt Q13627); assay: Inhibition of DYRK1A in human Jurkat cell lysates at 0.03 to 0.3 uM in presence of biotinylated ADP by KiNativ profiling based mass spectrometry; type: subcellular; details: dose 0.03-0.3 µM
[18] = molecular target: Glycogen synthase kinase-3 alpha (Homo sapiens) (UniProt P49840); assay: Inhibition of GSK3A in human Jurkat cell lysates at 0.03 to 0.3 uM in presence of biotinylated ADP by KiNativ profiling based mass spectrometry; type: subcellular; details: dose 0.03-0.3 µM
Glycogen synthase kinase-3 alpha (Homo sapiens), sequence (P49840 2-483 limits assumed): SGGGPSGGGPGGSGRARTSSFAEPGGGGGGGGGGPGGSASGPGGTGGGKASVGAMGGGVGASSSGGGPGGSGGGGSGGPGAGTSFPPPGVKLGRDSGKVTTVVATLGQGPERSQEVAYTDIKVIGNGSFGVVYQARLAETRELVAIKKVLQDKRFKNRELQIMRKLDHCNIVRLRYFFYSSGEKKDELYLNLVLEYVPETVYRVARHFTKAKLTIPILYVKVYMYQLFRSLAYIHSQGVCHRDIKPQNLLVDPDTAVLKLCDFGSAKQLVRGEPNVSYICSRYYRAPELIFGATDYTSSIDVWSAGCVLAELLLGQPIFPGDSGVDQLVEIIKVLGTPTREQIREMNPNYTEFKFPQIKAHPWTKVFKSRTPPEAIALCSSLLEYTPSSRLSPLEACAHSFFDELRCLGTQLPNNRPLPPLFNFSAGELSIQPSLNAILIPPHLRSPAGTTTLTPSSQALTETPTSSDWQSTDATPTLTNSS

[19] = molecular target: Glycogen synthase kinase-3 beta (Homo sapiens) (UniProt P49841); assay: Inhibition of GSK3B in human Jurkat cell lysates at 0.03 to 0.3 uM in presence of biotinylated ADP by KiNativ profiling based mass spectrometry; type: subcellular; details: dose 0.03-0.3 µM
Glycogen synthase kinase-3 beta (Homo sapiens), sequence (P49841 whole entry, looked up): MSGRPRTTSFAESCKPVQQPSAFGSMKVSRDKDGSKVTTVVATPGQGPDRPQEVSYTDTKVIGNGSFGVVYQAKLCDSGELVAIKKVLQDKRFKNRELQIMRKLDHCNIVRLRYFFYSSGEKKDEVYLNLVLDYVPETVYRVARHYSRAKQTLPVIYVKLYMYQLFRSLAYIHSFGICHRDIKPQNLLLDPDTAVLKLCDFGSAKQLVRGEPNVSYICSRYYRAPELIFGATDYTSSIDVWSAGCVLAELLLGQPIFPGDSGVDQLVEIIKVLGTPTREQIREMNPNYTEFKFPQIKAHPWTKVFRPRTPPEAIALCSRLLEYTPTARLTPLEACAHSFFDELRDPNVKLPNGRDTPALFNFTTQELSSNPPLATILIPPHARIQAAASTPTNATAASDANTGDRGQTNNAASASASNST

[20] = molecular target: T1, Serine/threonine-protein kinase ATR; assay: Inhibition of ATR in gemcitabine-stimulated human LoVo cells assessed as decrease in CHK1 phosphorylation at Ser345 residue; type: cell-based
Homo sapiens [21] = species on record: Homo sapiens; assay: Selectivity ratio of IC50 for inhibition of mTOR in human LoVo cells using pP70S6K (Thr389) as substrate to IC50 for inhibition of ATR in gemcitabine-stimulated human LoVo cells using CHK1 (Ser345) as substrate; type: cell-based

SMILES: C[C@@H]1COCCN1c1cc(C2(S(C)(=O)=O)CC2)nc(-c2cccc3[nH]ccc23)n1
pIC50 [1]: 8.00

SMILES: Cc1c[nH]nc1Nc1nc(N2CCOC[C@H]2C)cc(C2(S(C)(=O)=O)CC2)n1
pIC50 (ATR/ATRIP): < 6.00 | pIC50 [2]: < 5.00

SMILES: C[C@@H]1COCCN1c1cc(C2(S(C)(=O)=O)CC2)nc(Cc2cc[nH]n2)n1
pIC50 (ATR/ATRIP): < 6.15 | pIC50 [2]: < 5.00

SMILES: C[C@@H]1COCCN1c1cc(C2(S(C)(=O)=O)CC2)nc(S(=O)(=O)c2cc[nH]n2)n1
pIC50 (ATR/ATRIP): 6.80 | pIC50 [2]: < 5.00

SMILES: C[C@@H]1COCCN1c1cc(C2(S(C)(=O)=O)CC2)nc(N(C)c2cc[nH]n2)n1
pIC50 (ATR/ATRIP): < 6.00

SMILES: C[C@@H]1COCCN1c1cc(-c2ccccc2C(N)=O)c2cnn(-c3ccn[nH]3)c2n1
microsomal CLint at 1 µM [3]: < 11.6 µL/min/mg | bioavailability [4]: 2% | clearance [5]: 45 mL/min/kg

SMILES: C[C@@H]1COCCN1c1ccc2cnn(-c3cc[nH]n3)c2n1
pIC50 [2]: 7.22 | Ratio IC50 (Homo sapiens [6]): 4

SMILES: C[C@@H]1COCCN1c1cc(C(C)(C)C(N)=O)c2cnn(-c3cc[nH]n3)c2n1
pIC50 [2]: 8.05

SMILES: C[C@@H]1COCCN1c1cc(C(C)(C)C#N)c2cnn(-c3cc[nH]n3)c2n1
pIC50 [2]: 9.10 | Ratio IC50 (Homo sapiens [6]): 6.6 | microsomal CLint at 1 µM [3]: < 11.6 µL/min/mg | Papp at […], 10 µM [7]: 17 ×10⁻⁶ cm/s | efflux ratio at […], 10 µM [8]: 0.9 | bioavailability [4]: 56% | clearance [5]: 15 mL/min/kg

SMILES: C[C@@H]1COCCN1c1cc(I)c2cnn(-c3cc[nH]n3)c2n1
Ratio IC50 (Homo sapiens [6]): 1.6

SMILES: CNCc1ccc(-c2cc(-c3nc(-c4ccc(S(=O)(=O)C(C)C)cc4)cnc3N)on2)cc1 [BERZOSERTIB]
pIC50 [1]: 8.30 | pIC50 [10]: 7.07 | pIC50 [11]: 5.44 | pIC50 [12]: 5.32

SMILES: C[C@@H]1COCCN1c1cc(C2([S@](C)(=N)=O)CC2)nc(-c2cc[nH]c3nccc2-3)n1 [CERALASERTIB]
pIC50 [1]: 6.87 | pIC50 (LoVo): 6.42

SMILES: C[C@@H]1COCCN1c1cc(-c2ccnn2C)c2ccnc(-c3ccn[nH]3)c2n1 [ELIMUSERTIB]
pIC50 (LoVo): 7.57 | Activity (Granta-519): Active | Activity [13]: Toxic | Activity [14]: Non-Toxic | Activity [15]: Non-Toxic

Further lines, with some results ahead:

microsomal CLint at 1 µM [3]: < 11.6 µL/min/mg
SMILES: C[C@@H]1COCCN1c1cc(C2(O)CCC(F)(F)CC2)c2cnn(-c3cc[nH]n3)c2n1

pIC50 [2]: 8.15 | microsomal CLint at 1 µM [3]: 23 µL/min/mg
SMILES: C[C@@H]1COCCN1c1cc(I)c2cnn(-c3ccn[nH]3)c2n1

pIC50 (ATR/ATRIP): < 6.00
SMILES: Cc1cc2c(C3(S(C)(=O)=O)CC3)cc(N3CCOC[C@H]3C)nc2n1-c1cc[nH]n1

pIC50 [2]: 7.68
SMILES: C[C@@H]1COCCN1c1cc(C(C)(C)O)c2cnn(-c3cc[nH]n3)c2n1

pIC50 [2]: < 5.00
SMILES: C[C@@H]1COCCN1c1cc(C2(S(C)(=O)=O)CC2)nc(Nc2cn[nH]c2)n1

hepatocyte CLint at 1 µM [9]: < 2.9 µL/min/1e6 cells | microsomal CLint at 1 µM [3]: < 11.8 µL/min/mg
SMILES: C[C@@H]1COCCN1c1cc(C2(S(C)(=O)=O)CC2)c2ccn(-c3cc[nH]n3)c2n1

pIC50 (ATR/ATRIP): 6.80 | pKi [16]: 8.54 | pIC50 [2]: 8.30 | inhibition [17]: Active | inhibition [18]: Active | inhibition [19]: Active | pIC50 [20]: 8.96
SMILES: Nc1nn2cc(F)cnc2c1C(=O)Nc1cncc(F)c1N1CCC(C(=O)N2CCN(C3COC3)CC2)CC1 [M4344]
Ratio IC50 (Homo sapiens [6]): 27 | Ratio IC50 (Homo sapiens [21]): 63
